# Patent US10597391B2, “Urea-containing isoxazole derivatives as FXR agonists and methods of use thereof” (Enanta Pharmaceuticals, Inc., priority 2016, dated 2020)
# “And” between values parts separate entries of the source, which are not always exact repeats. Equal values may be shown once. Read-outs that look alike come from different tables or passages of the source.
# Target: T1, human FXR (NR1H4) (Homo sapiens, UniProt Q96RI1)
# T1 sequence (Q96RI1 1-486): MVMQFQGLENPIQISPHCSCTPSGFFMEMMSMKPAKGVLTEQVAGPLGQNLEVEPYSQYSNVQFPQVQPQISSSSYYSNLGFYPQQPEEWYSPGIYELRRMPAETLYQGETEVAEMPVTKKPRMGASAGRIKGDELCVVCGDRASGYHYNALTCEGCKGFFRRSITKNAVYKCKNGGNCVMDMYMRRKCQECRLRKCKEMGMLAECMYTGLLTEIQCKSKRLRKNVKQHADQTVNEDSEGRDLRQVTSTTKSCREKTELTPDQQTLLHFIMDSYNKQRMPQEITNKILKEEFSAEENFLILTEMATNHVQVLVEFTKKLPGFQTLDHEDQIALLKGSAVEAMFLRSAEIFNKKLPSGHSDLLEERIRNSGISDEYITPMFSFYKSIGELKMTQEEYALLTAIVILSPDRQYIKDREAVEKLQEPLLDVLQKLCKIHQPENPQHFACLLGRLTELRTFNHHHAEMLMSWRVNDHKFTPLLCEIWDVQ
# Assay: Human FXR (NR1H4) Assay: Gal4 promoter driven luciferase reporter transactivation in CHO cells (Indigo Bioscience kit IB00601)
# Type: cell-based
# Conditions: for EC50: Human FXR (NR1H4) reporter assay in CHO cells; for Emax: CHO, read-out: Efficacy (%)
# Text: Human FXR (NR1H4) Assay Determination of a ligand mediated Gal4 promoter driven transactivation to quantify ligand binding mediated activation of FXR. FXR Reporter Assay kit purchased from Indigo Bioscience (Catalogue number: IB00601) to determine the potency and efficacy of compounds that can induce FXR activation. The principle application of this reporter assay system is to quantify functional activity of human FXR. The assay utilizes non-human mammalian cells, CHO (Chinese hamster ovary) cells engineered to express human NR1H4 protein (referred to as FXR). Reporter cells also incorporate the cDNA encoding beetle luciferase which catalyzes the substrates and yields photon emission. Luminescence intensity of the reaction is quantified using a plate-reading luminometer, Envision. Reporter Cells include the luciferase reporter gene functionally linked to an FXR responsive promoter. Thus, quantifying changes in luciferase expression in the treated reporter cells provides a sensitive surrogate measure of the changes in FXR activity. […] The assay is according to the manufacturer's instructions. […] Retrieve Reporter Cells from −80° C. storage. Perform a rapid thaw of the frozen cells by transferring a 10 ml volume of 37° C. cell recovery medium into the tube of frozen cells. […] Retrieve the tube of Reporter Cell Suspension from the water bath. […] Dispense 90 μl of cell suspension into each well of the 96-well Assay Plate. Transfer the plate into 37° C. incubator, allowing the cells adherent to the bottom of the well. Dilute compounds in Dilution Plate (DP), and administrate to cells at Assay Plate (AP). […] Cells were incubated for additional 22 hours before luciferase activities were measured. Thirty minutes before intending to quantify FXR activity, remove Detection Substrate and Detection Buffer from the refrigerator and place them in a low-light area so that they may equilibrate to room temperature. Remove the plate's lid and discard all media contents by ejecting it into an appropriate waste container. Gently tap the inverted plate onto a clean absorbent paper towel to remove residual droplets. Cells will remain tightly adhered to well bottoms. Add 100 μl of luciferase detection reagent to each well of the assay plate. Allow the assay plate to rest at room temperature for at least 5 minutes following the addition of LDR. Set the instrument (Envision) to perform a single 5 second “plate shake” prior to reading the first assay well. Read time may be 0.5 second (500 mSec) per well.
# [1] = efficacy normalized to CDCA set as 100%
SMILES,"EC50 (potency range, read-out: EC50)",Emax [1],Emax,"EC50 (EC50, potency range)"
O=C(Nc1ccc2ccccc2c1)N1C2CCC1CC(OCc1c(-c3c(Cl)cccc3Cl)noc1C1CC1)C2 (stereo not drawn) [Example 20],10 to 100 nM,–,–,–
NS(=O)(=O)c1cccc(NC(=O)N2C3CCC2CC(OCc2c(-c4c(Cl)cccc4Cl)noc2C2CC2)C3)c1 (stereo not drawn) [Example 24],100 to 1000 nM,–,–,–
O=C(O)c1ccc(NC(=O)N2C3CCC2CC(OCc2c(-c4c(Cl)cccc4Cl)noc2C2CC2)C3)cc1 (stereo not drawn) [Example 184],< 10 nM,–,–,–
O=C(Nc1cccc(-c2cnn(C3CCOCC3)c2)c1)N1C2CCC1CC(OCc1c(-c3c(Cl)cccc3Cl)noc1C1CC1)C2 (stereo not drawn) [Example 708],< 10 nM,209%,–,–
O=C(O)c1ccc(NC(=O)N2C3CCC2CC(OCc2c(-c4c(Cl)cccc4Cl)noc2C2CC2)C3)c(F)c1-c1ccccc1 (stereo not drawn) [Example 798],10 to 100 nM,124%,–,–
O=C(Nc1cccnc1)N1C2CCC1CC(OCc1c(-c3c(Cl)cccc3Cl)noc1C1CC1)C2 (stereo not drawn) [Example 15],< 10 nM,–,–,–
O=C(O)c1c(F)cc(NC(=O)N2C3CCC2CC(OCc2c(-c4c(Cl)cccc4Cl)noc2C2CC2)C3)cc1F (stereo not drawn) [Example 199],100 to 1000 nM,–,–,–
O=C(Nc1cccc(C2CCCCC2)c1)N1C2CCC1CC(OCc1c(-c3c(Cl)cccc3Cl)noc1C1CC1)C2 (stereo not drawn) [Example 712],10 to 100 nM,144%,–,–
COC(=O)c1ccc(F)c(NC(=O)N2C3CCC2CC(OCc2c(-c4c(Cl)cccc4Cl)noc2C2CC2)C3)c1 (stereo not drawn) [Example 722],< 10 nM,115%,–,–
COc1cc(C(=O)O)ccc1NC(=O)N1C2CCC1CC(OCc1c(-c3ccccc3OC(F)(F)F)noc1C1CC1)C2 (stereo not drawn) [Example 238],< 10 nM,–,–,–
O=C(Nc1cccc(C(F)(F)F)c1)N1C2CCC1CC(NCc1c(-c3ccccc3OC(F)(F)F)noc1C1CC1)C2 (stereo not drawn) [Example 121],10 to 100 nM,–,–,–
O=C(O)c1cc(NC(=O)N2C3CCC2CC(OCc2c(-c4c(Cl)cccc4Cl)noc2C2CC2)C3)cc(-c2cccnc2)c1 (stereo not drawn) [Example 727],10 to 100 nM and < 10 nM,–,–,–
COC(=O)c1ccc(NC(=O)N2C3CCC2CC(OCc2c(-c4c(Cl)cccc4Cl)noc2C2CC2)C3)cc1C(F)(F)F (stereo not drawn) [Example 194],< 10 nM,–,–,–
O=C(Nc1cccc(-c2ccccc2)c1)N1C2CCC1CC(NCc1c(-c3c(Cl)cccc3Cl)noc1C1CC1)C2 (stereo not drawn) [Example 773],–,–,135%,10 to 100 nM
CCOC(=O)c1ccc(NC(=O)N2C3CCC2CC(OCc2c(-c4c(Cl)cccc4Cl)noc2C2CC2)C3)cc1-c1cncnc1 (stereo not drawn) [Example 778],< 10 nM,248%,–,–
CC1(S(=O)(=O)NC(=O)c2ccc(NC(=O)N3C4CCC3CC(OCc3c(-c5c(Cl)cccc5Cl)noc3C3CC3)C4)c(F)c2)CC1 (stereo not drawn) [Example 693],100 to 1000 nM,203%,–,–
O=C(Nc1ccncc1)N1C2CCC1CC(OCc1c(-c3c(Cl)cccc3Cl)noc1C1CC1)C2 (stereo not drawn) [Example 17],10 to 100 nM,–,–,–
COC(=O)c1ccc(OC)c(NC(=O)N2C3CCC2CC(OCc2c(-c4c(Cl)cccc4Cl)noc2C2CC2)C3)c1 (stereo not drawn) [Example 724],10 to 100 nM,137%,–,–
O=C(O)c1ccc(NC(=O)N2C3CCC2CC(OCc2c(-c4c(Cl)cccc4Cl)noc2C2CC2)C3)cn1 (stereo not drawn) [Example 213],100 to 1000 nM,–,–,–
CCOc1cc(C(=O)O)ccc1NC(=O)N1C2CCC1CC(OCc1c(-c3ccccc3OC(F)(F)F)noc1C1CC1)C2 (stereo not drawn) [Example 823],10 to 100 nM,112%,–,–
CC(C)(C)c1ccc(S(=O)(=O)NC(=O)c2cccc(NC(=O)N3C4CCC3CC(OCc3c(-c5c(Cl)cccc5Cl)noc3C3CC3)C4)c2)cc1 (stereo not drawn) [Example 217],> 1000 nM,–,–,–
O=C(Nc1ccc(-c2ccccc2)cc1)N1C2CCC1CC(OCc1c(-c3c(Cl)cccc3Cl)noc1C1CC1)C2 (stereo not drawn) [Example 728],10 to 100 nM,141%,–,–

SMILES,"EC50 (potency range, read-out: EC50)",Emax [1],Emax,"EC50 (EC50, potency range)"
N#Cc1cc(F)cc(NC(=O)N2C3CCC2CC(OCc2c(-c4c(Cl)cccc4Cl)noc2C2CC2)C3)c1 (stereo not drawn) [Example 704],< 10 nM,157%,–,–
O=C(Nc1cc(F)cc(F)c1)N1C2CCC1CC(OCc1c(-c3c(Cl)cccc3Cl)noc1C1CC1)C2 (stereo not drawn) [Example 700],< 10 nM,292%,–,–
O=C(NS(=O)(=O)C1CC1)c1ccc(NC(=O)N2C3CCC2CC(OCc2c(-c4ccccc4OC(F)(F)F)noc2C2CC2)C3)cc1 (stereo not drawn) [Example 755],100 to 1000 nM,220%,–,–
C[C@H](NC(=O)N1C2CCC1CC(OCc1c(-c3c(Cl)cccc3Cl)noc1C1CC1)C2)c1ccccc1 (stereo partly drawn) [Example 705],< 10 nM,242%,–,–
COC(=O)c1ccc(NC(=O)N2C3CCC2CC(OCc2c(-c4c(Cl)cccc4Cl)noc2C2CC2)C3)c(F)c1-c1ccccc1 (stereo not drawn) [Example 795],10 to 100 nM,44%,–,–
O=C(O)c1ccccc1NC(=O)N1C2CCC1CC(OCc1c(-c3ccccc3OC(F)(F)F)noc1C1CC1)C2 (stereo not drawn) [Example 744],> 1000 nM,165%,–,–
O=C(O)c1cnc2ccc(NC(=O)N3C4CCC3CC(OCc3c(-c5c(Cl)cccc5Cl)noc3C3CC3)C4)cc2c1 (stereo not drawn) [Example 211],100 to 1000 nM,–,–,–
COC(=O)c1ccc(NC(=O)N2C3CCC2CC(OCc2c(-c4ccccc4OC(F)(F)F)noc2C2CC2)C3)c(F)c1 (stereo not drawn) [Example 237],100 to 1000 nM,–,–,–
O=C(O)c1ccc(NC(=O)N2C3CCC2CC(OCc2c(-c4ccccc4OC(F)(F)F)noc2C2CC2)C3)cc1 (stereo not drawn) [Example 230],10 to 100 nM,–,–,–
COc1ccc(C(=O)O)cc1NC(=O)N1C2CCC1CC(OCc1c(-c3ccccc3OC(F)(F)F)noc1C1CC1)C2 (stereo not drawn) [Example 750],100 to 1000 nM,76%,–,–
CCOc1cc(C(=O)O)ccc1NC(=O)N1C2CCC1CC(OCc1c(C3CCC4(CC3)CC4)noc1C1CC1)C2 (stereo not drawn) [Example 813],10 to 100 nM,16%,–,–
O=C(Nc1nc2ccccc2s1)N1C2CCC1CC(OCc1c(-c3c(Cl)cccc3Cl)noc1C1CC1)C2 (stereo not drawn) [Example 23],10 to 100 nM,–,–,–
CCOC(=O)c1cccc(NC(=O)N2C3CCC2CC(OCc2c(-c4ccccc4OC(F)(F)F)noc2C2CC2)C3)n1 (stereo not drawn) [Example 766],> 1000 nM,192%,–,–
CN(C)C(=O)c1cccc(NC(=O)N2C3CCC2CC(OCc2c(-c4c(Cl)cccc4Cl)noc2C2CC2)C3)c1 (stereo not drawn) [Example 215],< 10 nM,–,–,–
O=C(Nc1cccc(-c2nccs2)c1)N1C2CCC1CC(OCc1c(-c3c(Cl)cccc3Cl)noc1C1CC1)C2 (stereo not drawn) [Example 737],< 10 nM,179%,–,–
O=C(O)c1cc(F)c(NC(=O)N2C3CCC2CC(OCc2c(-c4c(Cl)cccc4Cl)noc2C2CC2)C3)cc1-c1ccccc1 (stereo not drawn) [Example 797],< 10 nM,129%,–,–
O=C(O)c1ccc(NC(=O)N2C3CCC2CC(OCc2c(C4CCC5(CC4)CC5)noc2C2CC2)C3)cc1-c1ccccc1 (stereo not drawn) [Example 293],10 to 100 nM,–,–,–
CN(C)S(=O)(=O)c1cccc(NC(=O)N2C3CCC2CC(OCc2c(-c4c(Cl)cccc4Cl)noc2C2CC2)C3)c1 (stereo not drawn) [Example 25],< 10 nM,–,–,–
COC(=O)c1ccc(NC(=O)N2C3CCC2CC(OCc2c(-c4c(Cl)cccc4Cl)noc2C2CC2)C3)c(OC)c1 (stereo not drawn) [Example 190],10 to 100 nM,–,–,–
CS(=O)(=O)NC(=O)c1cccc(NC(=O)N2C3CCC2CC(OCc2c(-c4ccccc4OC(F)(F)F)noc2C2CC2)C3)c1 (stereo not drawn) [Example 262],> 1000 nM,–,–,–
CC(C)(C)c1ccc(S(=O)(=O)NC(=O)c2cccc(NC(=O)N3C4CCC3CC(OCc3c(-c5ccccc5OC(F)(F)F)noc3C3CC3)C4)c2)cc1 (stereo not drawn) [Example 263],> 1000 nM,–,–,–
O=C(O)c1ccc(NC(=O)N2C3CCC2CC(OCc2c(-c4c(Cl)cccc4Cl)noc2C2CC2)C3)cc1-c1ccc(C(F)(F)F)nc1 (stereo not drawn) [Example 799],< 10 nM,133%,–,–
